{"source": "patent US20130078268A1", "about": "“VACCINE COMPOSITIONS AND METHODS OF USE THEREOF” (priority 2010, published 2013)", "test_system": "peptide of SEQ ID NO: 1", "test": "Titer of antibody to the peptide of SEQ ID NO: 1 by peptide-based ELISA in serum of immunised mice", "format": "in vivo", "settings": "male C57B1 mice; three subcutaneous injections of 100 μg peptide + 100 μg calcium phosphate nanoparticles at 3-week intervals; two weeks after the last injection", "experimental": "Four male mice (8-week-old, C57B1) were given, three subcutaneous injections of vaccine composition comprising 100 μg of the peptide SEQ ID NO: 1 and 100 μg of calcium phosphate nanoparticles at 3-week intervals. As controls, an additional four mice received the vehicle. Two weeks after the last injection, the titer of antibody to the peptide of SEQ ID NO: 1 was assessed by the peptide-based enzyme-linked immunosorbent assay (ELISA). Samples were run in triplicate on ELISA plates coated with the peptide of the SEQ ID NO: 1, which was used as the immunogen. The peptide was bound in solid phase on high binding 96 well plates. Serum was diluted 1:500 and then serially diluted to a final dilution of 1:64,000. Detection of the antibody was obtained using an HRP conjugated secondary antibody (1:5,000) and TMB micro well peroxidase substrate.\nFour male mice (8-week-old, C57B1) were given three intraperitoneal injections of vaccine composition of example 3 at 3-week intervals. As controls, an additional four mice received the vehicle. Two weeks after the last injection, the titer of antibody to the peptide of SEQ ID NO: 1 was assessed by the peptide-based enzyme-linked immunosorbent assay (ELISA) as described in the example 4. […] Thus, the administering vaccine compositions of the invention elicited protective immunity in animals against endogenous peptide of SEQ ID NO: 1.", "note": "Where no end group is shown, it is not given here. [ ]: non-standard residue; d: D form. pGlu = O=C1CC[C@@H](C(=O)O)N1"}
{"substance": "pGlu-Pro-Pro-Gly-Gly-Ser-Lys-Val-Ile-Leu-Phe ([pGlu]PPGGSKVILF; listed as Homo sapiens) [peptide SEQ ID NO: 1]", "values": [{"measurement": "geometric mean titer of anti-SEQ ID NO: 1 antibodies in serum", "value": "about 70,000"}]}
